Reference: patent US20140363810A1, “METHOD OF MEASURING HUMAN CYP3A INDUCIBILITY” (SEKISUI MEDICAL CO., LTD., priority 2002, published 2014)

How the values were obtained:
[1] = test system: CYP3A4 inducibility (luciferase reporter AdCYP3A4-362); experiment: in vivo assay, luciferase activity in liver S-9 of mice given AdCYP3A4-362 virus; conditions: 100 mg/kg intraperitoneally once a day for three days, liver two days after virus
Method: (§1) The initial plan for viral administration was an intravenous route through the tail vein. […] Therefore, the route was changed to intraperitoneal administration so that the animal could not acutely respond to the virus. […] Two days after virus administration, each animal was dissected to remove the organ of interest (liver). The liver was homogenized and centrifuged at 9,000×g. Luciferase activity of the supernatant (S-9) was measured (FIG. 4).

[2] = test system: human CYP3A4 inducibility (luciferase reporter AdCYP3A4-362-7K with human PXR expression); experiment: in vivo assay, mice infected with virus (A) (AdCYP3A4-362-7K) and virus (B) (AdhPXR); conditions: 100 mg/kg/day×3; virus (A) AdCYP3A4-362-7K, co-administration with virus (B) per FIG. 8
Method: as §1

[3] = test system: CYP3A4 inducibility (luciferase reporter, CYP3A4 -362 to +11 fragment); experiment: in vitro reporter (luciferase) assay, cultured cells infected with AdCYP3A4-362 virus; conditions: 10 μM in DMSO, human liver-cancer-derived cultured cells
Method: (§2) A recombinant adenovirus was constructed through the following process.
(§3) Briefly, cells were seeded in a 24-well plate in an amount of 2.0×10^5 cells per well. On the following day; i.e., day 1, the cells were treated with a drug. On day 2, the drug-treated cells were infected with virus, and, 48 hours after viral infection, the cells were recovered. The recovered cells were lysed by use of a reporter lysis buffer (RLB), and the luciferase activity of the lysate was measured.
All these drugs are known to elicit CYP3A4 induction when administered to humans.

[4] = test system: CYP3A4 inducibility (luciferase reporter AdCYP3A4-362-7K); experiment: in vitro reporter assay, cultured cells infected with virus (A) (AdCYP3A4-362-7K); conditions: 10 μM, without virus (B)
Method: as §2, §3
(§4) Next, virus (B) (AdhPXR) was employed to thereby cause strong expression of hPXR.

[5] = test system: CYP3A4 inducibility (luciferase reporter AdCYP3A4-362-7K with hPXR expression); experiment: in vitro reporter assay, cultured cells infected with virus (A) (AdCYP3A4-362-7K) and virus (B) (AdhPXR); conditions: 10 μM, virus (A) AdCYP3A4-362-7K plus virus (B) AdhPXR
Method: as §2, §3, §4

Clc1ccccc1C(c1ccccc1)(c1ccccc1)n1ccnc1 [clotrimazole]
increase of luciferase activity in mouse liver S-9 compared with control [1]: about nine | attained inducibility (transcription activation) in mice infected with virus (A) [2]: 1,000 times | elevated luciferase activity level [3]: about eight | induction of luciferase activity [4]: 21 times | luciferase activity relative to non-treatment [5]: 60 times
